According to patent publication US5877210A, “Phosphotyrosine phosphatase inhibitors or phosphotyrosine kinase activators for controlling cellular proliferation” (priority 1995, dated 1999):
Entries after “also recorded” stand apart in the source; their conditions may differ. Like-named read-outs stand apart in the source and are kept apart here.

Experiments:
[1] = system: Jurkat; experiment: Anti-phosphotyrosine immunoblot; type: cell-based, human
[2] = system: HL-60; experiment: Clonogenic assay in methylcellulose; type: cell-based, human; details: for colonies formed: seven days
Method: (§1) The selective cytotoxicity of BMLOV was examined in clonogenic assays. Cells were grown in methylcellulose media and the number of colonies formed after seven days of treatment with various doses of the drug were determined. The clonogenic assays were performed with six replicates for each treatment as described [F. M. Uckun et al., J. Exp. Med. 163:347-368 (1986); F. M. Uckun & J. A. Ledbetter, Proc. Natl. Acad. Sci. USA 85:8603-8607 (1988)). The data is given plus/minus the standard error of the mean.
(§2) For assays of cellular proliferation, cells were grown five days in the presence of the indicated concentrations of BMLOV, pulsed 6 hr with [^3 H]-thymidine (New England Nuclear, Boston, Mass.), and counted in a liquid scintillation counter. Human peripheral blood lymphocytes (PBL) from normal volunteers were isolated from lymphocyte separation medium (Litton Bionetics, Kensington, Md.) by density gradient centrifugation. Monocytes were depleted from PBL by two rounds of plastic absorption for 30 minutes at 37° C. B cells were enriched for by negative selection using complement plus monoclonal antibodies to CD2, CD3, CD4, and CD8 for complement depletion. Clonogenic assays of colony formation in methylcellulose medium were performed as previously described (F. M. Uckun et al. (1992), supra).

[3] = system: Ramos; experiment: Clonogenic assay in methylcellulose; type: cell-based, human; details: Ramos; for colonies formed: seven days
Method: as §1, §2

[4] = system: THP-1; experiment: Clonogenic assay in methylcellulose; type: cell-based, human; details: for colonies formed: seven days
Method: as §1, §2

[5] = system: Raji; experiment: Clonogenic assay in methylcellulose; type: cell-based, human; details: for colonies formed: seven days
Method: as §1, §2

[6] = system: Syk tyrosine kinase; experiment: Syk tyrosine phosphorylation (anti-Syk immunoprecipitate, anti-phosphotyrosine blot) in Ramos B cells; type: cell-based, human; details: 16 hours, no antigen receptor stimulation
Method: BMLOV is known to inhibit Src-family tyrosine kinases. […] Ramos B cells were treated with the indicated concentrations of BMLOV or pV(phen) for 16 hours. The cells were then lysed and the Syk tyrosine kinase was immunoprecipitated with anti-Syk antibodies. The tyrosine phosphorylation of Syk was examined by an anti-phosphotyrosine Western blot of the immunoprecipitated Syk protein following SDS-polyacrylamide gel electrophoresis (shown at left). The amount of Syk protein recovered was determined by anti-Syk Western blotting of identical samples (shown at right).
In the experiments shown in FIG. 23, cells were treated 16 h with BMLOV and then stimulated with α-μ for 5 min. Cells were then washed and resuspended in fresh media at equal concentrations of BMLOV at 37° C. Cells were harvested and lysted at times following the initiation of α-μ stimulation as indicated. Antibody binding in immunoblots was detected by ECL.

[7] = system: pp60^c-src; experiment: pp60c-src kinase activity in colon carcinoma cell lines; type: cell-based; details: two colon carcinoma cell lines expressing Src; dose-dependent
Description: Many colon carcinomas are known to express the Src oncogene product at high levels.

[8] = system: Ramos cells; experiment: Anti-phosphotyrosine western blot of cell lysates; type: cell-based, human
[9] = system: Ramos; experiment: [3H]thymidine incorporation assay; type: cell-based, human; details: for [3H]cpm incorporation: seven days
Method: (§3) For each cell type, the cells were passaged uniformly for all drug doses given during the seven-day period. The cells were then pulsed for six hours with [^3 H]thymidine. The extent of DNA synthesis was then determined by counting the radioactivity incorporated into the cells.
as §2
The effect of the variation of treatment time with pV(phen) on the inhibition of proliferation in Ramos cells is shown in Table 11. These cells were grown in pV(phen) for the indicated times, washed, and then grown in fresh media for the balance of the 5-day assay. These cells were pulsed with [^3 H]-thymidine on day 5.

[10] = system: CEM; type: cell-based, human
Description: The extent to which the T cells were being killed by BMLOV treatment relative to the Ramos B cells was therefore examined. […] The percentage of cells in each quadrant is indicated. The lower right quadrant contains the viable cells.

[11] = system: A20; experiment: [3H]thymidine incorporation assay; type: cell-based, murine; details: for [3H]cpm incorporation: seven days; for [3H]-thymidine radioactivity incorporated: 5 days
Method: as §3, §2
The cell lines A20, 70Z-3, L1210, and P388D were used. A20 is a B cell lymphoma cell line; 70Z/3 is a B cell leukemia cell line; L1210 is a T cell leukemia cell line; and P388D is a myeloid leukemia cell line. The cells were grown for 5 days in the presence of pV(phen) and pulsed with [^3 H]-thymidine on day 5. The extent of DNA synthesis was then determined by counting the radioactivity incorporated into the cells, as in Example 5, supra. […] The effects on L1210 cells and P388D cells are particularly noteworthy because these cell lines have been extensively used by the National Cancer Institute to identify anti-cancer drugs.

[12] = system: subcutaneously implanted human ovarian carcinoma, A2780; experiment: In vivo antitumor test, A2780
Method: Finally, pV(phen) was tested against subcutaneously implanted human ovarian carcinoma, A2780, in Experiment No. 54, using a treatment schedule of once daily for 9 days. Treatments (i.p.) were begun on day 10 post implant when the tumors were small but definite, e.g. […]

[13] = Expt. 54, OD 12 mg/kg/inj, qdx9;10, ip

Cc1occc(=O)c1[O-].Cc1occc(=O)c1[O-].[O]=[V+2] [BMLOV, Bis(maltolato)oxovanadium (IV)]
induction of tyrosine phosphorylation ([1]; 16 hr): only low levels of tyrosine phosphorylation
percentage of inhibition of clonogenic growth ([2]; 1 μM BMLOV): 99.4%
colonies formed ([2]; 1 μM BMLOV): 31 ± 8 colonies per 10^4 cells
percentage of inhibition of clonogenic growth ([2]; 5 μM BMLOV): 99.4%
colonies formed ([2]; 5 μM BMLOV): 31 ± 8 colonies per 10^4 cells
percentage of inhibition of clonogenic growth ([2]; 10 μM BMLOV): 99.7%
colonies formed ([2]; 10 μM BMLOV): 15 ± 4 colonies per 10^4 cells
percentage of inhibition of clonogenic growth ([3]; 1 μM BMLOV): 95.6%
colonies formed ([3]; 1 μM BMLOV): 179 ± 33 colonies per 10^4 cells
percentage of inhibition of clonogenic growth ([3]; 5 μM BMLOV): 99.8%
colonies formed ([3]; 5 μM BMLOV): 7 ± 2 colonies per 10^4 cells
percentage of inhibition of clonogenic growth ([3]; 10 μM BMLOV): greater than 99.9%
colonies formed ([3]; 10 μM BMLOV): 0 colonies per 10^4 cells
percentage of inhibition of clonogenic growth ([4]; 1 μM BMLOV): 75.0%
colonies formed ([4]; 1 μM BMLOV): 1613 ± 235 colonies per 10^4 cells
percentage of inhibition of clonogenic growth ([4]; 5 μM BMLOV): 98.0%
colonies formed ([4]; 5 μM BMLOV): 127 ± 35 colonies per 10^4 cells
percentage of inhibition of clonogenic growth ([4]; 10 μM BMLOV): 98%
colonies formed ([4]; 10 μM BMLOV): 127 ± 35 colonies per 10^4 cells
percentage of inhibition of clonogenic growth ([5]; 1 μM BMLOV): 60.3%
colonies formed ([5]; 1 μM BMLOV): 1291 ± 283 colonies per 10^4 cells
percentage of inhibition of clonogenic growth ([5]; 5 μM BMLOV): 99.9%
colonies formed ([5]; 5 μM BMLOV): 4 ± 0.6 colonies per 10^4 cells
colonies formed ([5]; 10 μM BMLOV): 3 ± 0.8 colonies per 10^4 cells
tyrosine phosphorylation of Syk [6]: only very slight tyrosine phosphorylation of Syk; also recorded: induced tyrosine phosphorylation of Syk in a dose-dependent manner
pp60c-src activity [7]: strongly inhibited
level of tyrosine phosphorylation ([8]; 50 μM BMLOV, 16 hours): high levels of tyrosine phosphorylation
time at which tyrosine phosphorylation begins ([8]; 100 μM BMLOV): ≤ 8 min
induction of tyrosine phosphorylation compared with sodium orthovanadate ([8]; 100 μM each, 30 min): more potent than orthovanadate
induction of cellular tyrosine phosphorylation ([8]; Ramos B cells, varying doses, 1 hour or 16 h): induces tyrosine phosphorylation in a dose-dependent manner; also recorded: dose-dependent induction of tyrosine phosphorylation
tyrosine phosphorylation response to sIg crosslinking ([8]; particularly at early time points): enhanced the tyrosine phosphorylation response
[3H]cpm incorporation ([9]; 1 μM BMLOV): 289936 cpm
[3H]cpm incorporation ([9]; 5 μM BMLOV): 65545 cpm
[3H]cpm incorporation ([9]; 10 μM BMLOV): 167 cpm
[3H]cpm incorporation ([9]; 25 μM BMLOV): 149 cpm
sensitivity of proliferation to BMLOV, in words ([9]; 10 and 25 μM, 5 or 7 days): highly sensitive
killing by BMLOV, in words ([10]; CEM, 25 μM BMLOV, 4 days): resistant to killing
[3H]cpm incorporation ([11]; 1 μM BMLOV): 419947 cpm
[3H]cpm incorporation ([11]; 5 μM BMLOV): 289932 cpm
[3H]cpm incorporation ([11]; 10 μM BMLOV): 66157 cpm
[3H]cpm incorporation ([11]; 25 μM BMLOV): 281 cpm
sensitivity of proliferation to BMLOV, in words ([11]; 25 μM, 5 or 7 days): very sensitive; also recorded: highly sensitive

[Na+].[O]=[V-]12([O][O]1)[O][O]2.c1cnc2c(c1)ccc1cccnc12 [pV(phen), sodium (1,10-phenanthroline) oxodiperoxovanadium (V)]
induction of tyrosine phosphorylation by pV(phen) ([1]; Jurkat T cells, 16 hours): high level of tyrosine phosphorylation
LCK (log cell kill) [12, 13]: 0.4
T-C (delay in primary tumor growth) [12, 13]: 4.0 days
MTD ([12]; once daily for 9 days, i.p., cumulative dose of 45 mg/kg): 5 mg/kg per injection
tyrosine phosphorylation of Syk [6]: strongly induces tyrosine phosphorylation of the Syk tyrosine kinase
proteins tyrosine phosphorylated, compared with BMLOV ([8]; 16 hours, particularly at 10 μM): causes the tyrosine phosphorylation of a significantly larger group of proteins than does BMLOV
induction of tyrosine phosphorylation by pV(phen) ([8]; Ramos B cells, 16 hours): high level of tyrosine phosphorylation
[3H] Thymidine Incorporation ([9]; 1 μM pV(phen) for 4 hr, then fresh media to day 5): 540438 ± 86014 cpm
[3H] Thymidine Incorporation ([9]; 1 μM pV(phen) for 8 hr, then fresh media to day 5): 444806 ± 20361 cpm
[3H] Thymidine Incorporation ([9]; 1 μM pV(phen) for 24 hr, then fresh media to day 5): 396533 ± 16116 cpm
[3H] Thymidine Incorporation ([9]; 1 μM pV(phen) for 5 d): 1969 ± 1295 cpm
inhibition of proliferation ([9]; 1 μM pV(phen), full 5-day treatment): ≥ 99%
[3H] Thymidine Incorporation ([9]; 5 μM pV(phen) for 4 hr, then fresh media to day 5): 502956 ± 20963 cpm
[3H] Thymidine Incorporation ([9]; 5 μM pV(phen) for 8 hr, then fresh media to day 5): 351849 ± 7357 cpm
[3H] Thymidine Incorporation ([9]; 5 μM pV(phen) for 24 hr, then fresh media to day 5): 312 ± 83 cpm
[3H] Thymidine Incorporation ([9]; 5 μM pV(phen) for 5 d): 615 ± 268 cpm
[3H] Thymidine Incorporation ([9]; 10 μM pV(phen) for 4 hr, then fresh media to day 5): 554511 ± 10077 cpm
[3H] Thymidine Incorporation ([9]; 10 μM pV(phen) for 8 hr, then fresh media to day 5): 185021 ± 11112 cpm
[3H] Thymidine Incorporation ([9]; 10 μM pV(phen) for 24 hr, then fresh media to day 5): 1862 ± 1461 cpm
[3H] Thymidine Incorporation ([9]; 10 μM pV(phen) for 5 d): 982 ± 519 cpm
[3H] Thymidine Incorporation ([9]; 25 μM pV(phen) for 4 hr, then fresh media to day 5): 433034 ± 74272 cpm
[3H] Thymidine Incorporation ([9]; 25 μM pV(phen) for 8 hr, then fresh media to day 5): 877 ± 93 cpm
[3H] Thymidine Incorporation ([9]; 25 μM pV(phen) for 24 hr, then fresh media to day 5): 399 ± 231 cpm
[3H] Thymidine Incorporation ([9]; 25 μM pV(phen) for 5 d): 651 ± 295 cpm
cells killed ([10]; CEM, 10 μM pV(phen), three days): all the cells
cells killed ([10]; human, cem cells, 48 h, 10 µM): 98%
[3H]-thymidine radioactivity incorporated ([11]; 5 μM pV(phen)): 73 ± 23
[3H]-thymidine radioactivity incorporated ([11]; 10 μM pV(phen)): 76 ± 48
